Measured values as given in patent US8273775B2, “Non-steroidal brassinosteroid mimetic” (priority 2006, dated 2012).

Tested on: gene expression in Col-0 seedling shoots
Assay: Microarray analysis (ATH1 Affymetrix) after BL or abrasin treatment
Format: in vivo, Arabidopsis
Conditions: 30 min
Experimental: FIG. 14: Clustering of gene expression profiles by QT-clust analysis. Clusters illustrating the major patterns of the data sets. Points: BIK-30: 30 μM abrasin 30 min; BL-30: 1 μM brassinolide 30 min; DMSO-30: control DMSO 30 min; BIK-120: 30 μM abrasin 120 min; BL-120: 1 μM brassinolide 120 min; DMSO-120: control DMSO 120 min.
Col-0 seeds were germinated vertically on ½ MS medium for 7 days under 16 h light/8 h dark cycles. The seedlings were overlaid with liquid ½ MS medium containing 1 μM brassinolide (BL, Fuji Chemical Industries, Ltd., Toyama, Japan), 30 μM abrasin (BIK, ChemBridge Corporation) and DMSO and treated for 30 and 120 min. The shoot parts were collected for RNA isolation. All sampling points were performed in three independent experiments. RNA was extracted using RNeasy kit (Qiagene). […] total RNA per array was used to hybridise the ATH1 Affymetrix Arabidopsis arrays according to standard procedure. The overrepresentation analyses were performed using BiNGO software (Maere et al., 2005).
We performed a microarray analysis using the Arabidopsis whole genome chip (Affymetix) to determine whether abrasin activated the expression of BR-inducible genes at transcriptional level. Wild-type Col-0 seedlings were exposed to 1 μM BL, 30 μM ABRASIN and DMSO (mock-treatment) for two time points (30 min and 120 min) and the shoot parts were collected for RNA isolation. The analysis of the variance of the normalized gene expression data took in account the variability parameters affecting the expression level: type of hormone treatment, duration of treatment and the interaction between these two.

## O=C(O)CCC(=O)Nc1ccc(Br)cn1 [abrasin, 4-[(5-bromo-2-pyridinyl)amino]-4-oxobutanoic acid]
  Fold-change AT4G16563 aspartyl protease family protein: 1.16
  Fold-change AT4G16670 expressed protein: 0.79
  Fold-change AT4G16780 homeobox-leucine zipper protein 4 (HAT4)/HD-ZIP protein: 0.54
  Fold-change AT4G17250 expressed protein: 1.20
  Fold-change AT4G17460 homeobox-leucine zipper protein 1 (HAT1)/HD-ZIP protein 1: 0.29
  Fold-change AT4G21510 F-box family protein: 1.03
  Fold-change AT4G23030 MATE efflux protein-related: 1.60
  Fold-change AT4G23070 rhomboid family protein: 2.00
  Fold-change AT4G23810 WRKY family transcription factor: 5.76
  Fold-change AT4G24160 hydrolase, alpha/beta fold family protein: 1.42
  Fold-change AT4G25620 hydroxyproline-rich glycoprotein family protein: 0.51
  Fold-change AT4G25780 pathogenesis-related protein: 0.12
  Fold-change AT4G27970 C4-dicarboxylate transporter/malic acid transport family protein: 2.43
  Fold-change AT4G28240 wound-responsive protein-related: 0.49
  Fold-change AT4G28490 leucine-rich repeat transmembrane protein kinase, putative: 1.20
  Fold-change AT4G28703 expressed protein: 1.95
  Fold-change AT4G28780 GDSL-motif lipase/hydrolase family protein: 1.00
  Fold-change AT4G29070 expressed protein: 0.78
  Fold-change AT4G30080 transcriptional factor B3 family protein: 0.89
  Fold-change AT4G31020 expressed protein: 2.67
  Fold-change AT4G32280 auxin-responsive AUX/IAA family protein (IAA29): 0.32
  Fold-change AT4G33050 calmodulin-binding family protein: 2.38
  Fold-change AT4G33700 CBS domain-containing protein: 0.73
  Fold-change AT4G34610 homeodomain-containing protein: 1.02
  Fold-change AT4G36110 auxin-responsive protein: 1.16
  Fold-change AT4G36780 brassinosteroid signalling positive regulator-related: 0.49
  Fold-change AT4G37240 expressed protein: 0.79
  Fold-change AT4G37290 expressed protein: 0.95
  Fold-change AT4G37590 phototropic-responsive NPH3 family protein: 1.04
  Fold-change AT4G38840 auxin-responsive protein (SAUR14): 1.01
  Fold-change AT4G38850 auxin-responsive protein (SAUR-AC1): 1.00
  Fold-change AT4G38860 auxin-responsive protein (SAUR16): 0.79
  Fold-change AT4G39400 brassinosteroid insensitive 1 (BRI1): 0.71
  Fold-change AT5G02020 expressed protein: 1.01
  Fold-change AT5G05690 cytochrome P450 90A1 (CYP90A1) (CYP90) (CPD): 0.63
  Fold-change AT5G07690 myb family transcription factor (MYB29): 0.58
  Fold-change AT5G08130 basic helix-loop-helix (bHLH) family protein (BIM2): 0.76
  Fold-change AT5G12050 expressed protein: 0.52
  Fold-change AT5G13180 no apical meristem (NAM) family protein: 0.77
  Fold-change AT5G13740 sugar transporter family protein: 0.81
  Fold-change AT5G14730 expressed protein: 0.38
  Fold-change AT5G16200 50S ribosomal protein-related: 0.37
  Fold-change AT5G16980 NADP-dependent oxidoreductase: 1.11
  Fold-change AT5G18750 DNAJ heat shock N-terminal domain-containing protein: 1.91
  Fold-change AT5G19200 short-chain dehydrogenase/reductase (SDR) family protein: 1.00
  Fold-change AT5G19340 expressed protein: 0.83
  Fold-change AT5G24030 C4-dicarboxylate transporter/malic acid transport family protein: 2.35
  Fold-change AT5G24660 expressed protein: 2.43
  Fold-change AT5G25240 expressed protein: 0.74
  Fold-change AT5G25930 leucine-rich repeat family protein: 2.65
  Fold-change AT5G27350 sugar-porter family protein 1 (SFP1): 1.07
  Fold-change AT5G27670 histone H2A: 0.79
  Fold-change AT5G38310 expressed protein: 1.00
  Fold-change AT5G38990; AT5G39000 [AT5G38990, protein kinase family protein: 1.40
  Fold-change AT5G39050 transferase family protein: 1.49
  Fold-change AT5G39610 no apical meristem (NAM) family protein: 0.72
  Fold-change AT5G39970 expressed protein: 1.42
  Fold-change AT5G42830 transferase family protein: 1.03
  Fold-change AT5G47370 homeobox-leucine zipper protein 2 (HAT2): 0.51
  Fold-change AT5G48070 putative xyloglucan endotransglycosylase/hydrolase: 1.48
  Fold-change AT5G48540 33 kDa secretory protein-related: 2.45
  Fold-change AT5G51550 phosphate-responsive 1 family protein: 1.02
  Fold-change AT5G54490 calcium-binding EF-hand protein, putative: 0.73
  Fold-change AT5G54860 integral membrane transporter family protein: 1.69
  Fold-change AT5G55970 zinc finger (C3HC4-type RING finger) family protein: 0.96
  Fold-change AT5G56980 expressed protein: 0.43
  Fold-change AT5G57190 phosphatidylserine decarboxylase: 1.32
  Fold-change AT5G57780 expressed protein: 0.35
  Fold-change AT5G59080 expressed protein: 0.46
  Fold-change AT5G60200 Dof-type zinc finger domain-containing protein: 1.36
  Fold-change AT5G60270 lectin protein kinase family protein: 0.96
  Fold-change AT5G60630 expressed protein: 0.99
  Fold-change AT5G61600 encodes a member of the ERF (ethylene response factor): 0.53
  Fold-change AT5G62360 invertase/pectin methylesterase inhibitor family protein: 0.52
  Fold-change AT5G65310 homeobox-leucine zipper protein 5 (HB-5)/HD-ZIP transcription factor 5: 0.90
  Fold-change AT5G66420 expressed protein: 0.92
  Fold-change AT5G66590 allergen V5/Tpx-1-related family protein: 0.53
  Fold-change AT5G67450 zinc finger (C2H2 type) protein 1 (AZF1): 6.17
245479_at, Cluster 6
  Fold-change of gene AT4G16140 (proline-rich family protein): 1.16
245543_at, Cluster 7
  Fold-change of gene AT4G15260 (UDP-glucoronosyl/UDP-glucosyl transferase family protein): 1.41
245885_at, Cluster 5
  Fold-change of gene AT5G09440 (phosphate-responsive protein, putative): 0.38
246389_at, Cluster 10
  Fold-change of gene AT1G77380 (amino acid carrier): 1.32
246516_at, Cluster 5
  Fold-change of gene AT5G15740 (expressed protein): 0.78
247177_at, Cluster 5
  Fold-change of gene AT5G65300 (expressed protein): 0.31
247205_at, Cluster 10
  Fold-change of gene AT5G64890 (expressed protein): 1.01
247351_at, Cluster 9
  Fold-change of gene AT5G63790 (no apical meristem (NAM) family protein): 0.88
247444_at, Cluster 7
  Fold-change of gene AT5G62630 (expressed protein): 1.62
247601_at, Cluster 10
  Fold-change of gene AT5G60850 (Dof-type zinc finger domain-containing protein): 0.51
247704_at, Cluster 9
  Fold-change of gene AT5G59510 (expressed protein): 1.00
247774_at, Cluster 5
  Fold-change of gene AT5G58660 (oxidoreductase. 2OG-Fe(II) oxygenase family protein): 1.15
248190_at, Cluster 5
  Fold-change of gene AT5G54120 (expressed protein): 0.82
248191_at, Cluster 5
  Fold-change of gene AT5G54130 (calcium-binding EF hand family protein): 0.84
248282_at, Cluster 6
  Fold-change of gene AT5G52900 (expressed protein): 1.70
248646_at, Cluster 9
  Fold-change of gene AT5G49100 (expressed protein): 0.72
250012_x_at, Cluster 6
  Fold-change of gene AT5G18060 (auxin-responsive protein): 1.00
250493_at, Cluster 9
  Fold-change of gene AT5G09800 (U-box domain-containing protein): 1.04
250537_at, Cluster 8
  Fold-change of gene AT5G08565 (expressed protein): 0.87
250907_at, Cluster 5
  Fold-change of gene AT5G03670 (expressed protein): 0.61
251072_at, Cluster 5
  Fold-change of gene AT5G01740 (expressed protein): 0.33
251176_at, Cluster 10
  Fold-change of gene AT3G63380 (calcium-transporting ATPase): 0.85
251342_at, Cluster 9
  Fold-change of gene AT3G60690 (auxin-responsive family protein): 0.91
252586_at, Cluster 10
  Fold-change of gene AT3G45610 (Dof-type zinc finger domain): 0.94
252646_at, Cluster 5
  Fold-change of gene AT3G44610 (protein kinase family protein): 0.83
253255_at, Cluster 6
  Fold-change of gene AT4G34760 (auxin-responsive family protein): 1.80
253281_at, Cluster 7
  Fold-change of gene AT4G34138 (UDP-glucoronosyl/UDP-glucosyl transferase family protein): 1.52
253483_at, Cluster 5
  Fold-change of gene AT4G31910 (transferase family protein): 1.46
253617_at, Cluster 5
  Fold-change of gene AT4G30410 (expressed protein): 0.94
253629_at, Cluster 5
  Fold-change of gene AT4G30450 (glycine-rich protein): 0.84
253999_at, Cluster 9
  Fold-change of gene AT4G26200 (1-aminocyclopropane-1-carboxylate synthase): 1.11
255403_at, Cluster 6
  Fold-change of gene AT4G03400 (auxin-responsive GH3 family protein): 0.81
255443_at, Cluster 7
  Fold-change of gene AT4G02700 (sulfate transporter): 1.76
255926_at, Cluster 8
  Fold-change of gene AT1G22190 (AP2 domain-containing transcription factor): 0.45
256528_at, Cluster 6
  Fold-change of gene AT1G66140 (zinc finger (C2H2 type) family protein): 0.87
256762_at, Cluster 8
  Fold-change of gene AT3G25655 (expressed protein): 1.00
256818_at, Cluster 7
  Fold-change of gene AT3G21420 (oxidoreductase, 2OG-Fe(II) oxygenase family protein): 1.13
257066_at, Cluster 5
  Fold-change of gene AT3G18280 (protease inhibitor/seed storage/lipid transfer protein): 1.03
257506_at, Cluster 6
  Fold-change of gene AT1G29440 (auxin-responsive family protein): 0.96
257746_at, Cluster 5
  Fold-change of gene AT3G29200 (chorismate mutase, chloroplast (CM1)): 0.83
259364_at, Cluster 8
  Fold-change of gene AT1G13260 (DNA-binding protein RAV1 (RAV1)): 0.32
259773_at, Cluster 6
  Fold-change of gene AT1G29500 (auxin-responsive protein): 1.01
259783_at, Cluster 6
  Fold-change of gene AT1G29510 (auxin-responsive protein): 1.02
259784_at, Cluster 6
  Fold-change of gene AT1G29450 (auxin-responsive protein): 0.99
259787_at, Cluster 6
  Fold-change of gene AT1G29460 (auxin-responsive protein): 1.23
259875_s_at, Cluster 7
  Fold-change of gene AT1G76690; AT1G76680 ([AT1G76690, 12-oxophytodienoate reductase (OPR2)): 1.95
259985_at, Cluster 8
  Fold-change of gene AT1G76620 (expressed protein): 0.90
260243_at, Cluster 10
  Fold-change of gene AT1G63720 (expressed protein): 0.92
260727_at, Cluster 8
  Fold-change of gene AT1G48100 (glycoside hydrolase family 28 protein): 0.92
261023_at, Cluster 7
  Fold-change of gene AT1G12200 (flavin-containing monooxygenase family protein): 1.44
261203_at, Cluster 6
  Fold-change of gene AT1G12845 (expressed protein): 1.66
261768_at, Cluster 6
  Fold-change of gene AT1G15550 (gibberellin 3-beta-dioxygenase): 1.12
261892_at, Cluster 9
  Fold-change of gene AT1G80840 (WRKY family transcription factor): 0.43
262040_at, Cluster 6
  Fold-change of gene AT1G80080 (leucine-rich repeat family protein): 1.56
262050_at, Cluster 8
  Fold-change of gene AT1G80130 (expressed protein): 0.90
262505_at, Cluster 10
  Fold-change of gene AT1G21680 (expressed protein): 0.82
262543_at, Cluster 6
  Fold-change of gene AT1G34245 (expressed protein): 1.69
263126_at, Cluster 7
  Fold-change of gene AT1G78460 (SOUL heme-binding family protein): 1.01
264279_s_at, Cluster 7
  Fold-change of gene AT1G78820; AT1G78830 ([AT1G78820, curculin-like (mannose-binding) lectin family protein): 1.27
